“Also recorded” adds a separate entry of the source. Each block holds one compound with its values, some of them ahead of it.
Experiments:
[1] = system: MOG35-55-induced EAE; assay: EAE mouse model of MS, clinical paralysis score; assay type: in vivo, female C57BL/6 mice; settings: EAE mice, oral daily from onset of signs, TM5484 5 mg/kg/d, fingolimod 0.5 mg/kg, 6α-methylprednisolone 5 mg/kg
Description: (§1) All animal experiments conformed to the National Health Guide for the Care and Use of Laboratory Animals and were approved by the Animal Committee at Tohoku University. Studies were performed on 11-week-old female C57BL/6 mice (n = 8–10, each group) and 10-week-old Lewis rats (n = 6–8, each group), obtained from SJC, Japan SLC (Hamamatsu, Shizuoka, Japan). Animals were housed under a 12h light-dark cycle and given regular chow, MF (Oriental Yeast Co., Ltd.).
Experimental autoimmune encephalomyelitis (EAE) was induced in mice as described previously. Briefly, on day 0, 200 microgramme of myelin oligodendrocyte glycoprotein^35–55 (MOG^35–55) peptide was injected s.c, twice, in the lower and upper back of the mice, in an equal volume of complete Freund’s adjuvant (Hooke Laboratories, Inc.). Next, 200 ng of pertussis toxin (Hooke Laboratories, Inc.) dissolved in PBS was applied i.p. On day 1, another 200 ng of pertussis toxin was administered. For rats, 200 microgramme of myelin basic protein^69-88 (MBP^69-88) was injected (Hooke Laboratories, Inc.) twice, in the lower back on day 0. Animals were scored for motor paralysis on a daily basis. Disease severity was assessed using a scale ranging from 0 to 5 (Hooke Laboratories, Inc.): 0, normal; 1, limp tail; 1.5, Limp tail and hind leg inhibition; 2, Limp tail and weakness of hind legs.; 2.5, Limp tail and dragging of hind legs; 3, Limp tail and complete paralysis of hind legs; 3.5, Limp tail and complete paralysis of hind legs and Hind legs are together on one side of body; 4, Limp tail, complete hind leg and partial front leg paralysis; 4.5, Complete hind and partial front leg paralysis, no movement around the cage; 5, Mouse is spontaneously rolling in the cage. Mice were typically observed for 28 days, during which they will remain chronically paralyzed.

[2] = in vitro; settings: rat
Description: (§2) This BBB model was reconstructed by the culture of both primary rat brain micro vascular endothelial cells and rat brain pericytes separated by a macroporous Millicell membrane (24 wells, pore size: 3.0 μm, Millipore, Bedford, MA, USA). Briefly, we pre-incubated the BBB kits at 37 °C in 5% CO2 conditions for 4–5 days, in order to strongly reconstruct the barrier integrity and tight-junctions. To evaluate the barrier integrity and confirm the functionality of the tight-junctions, trans-endothelial electrical resistance (TEER) was measured at day 5-post incubation. Assays were carried out using TEER values in the range of 150-to 300-Ω cm^2 [11]. Once the tight junctions reach a TEER of 300-Ω cm^2, 0.9 mL PBS-based assay medium was added to blank 24-well culture plates. Prior to incubation, selected compounds were diluted in DMSO 100%. The compounds suspended in 0.2 mL assay medium were fortified into the apical side and incubated for 30 min. Next, the medium from both the apical and the basolateral sides were collected and further analyzed by liquid chromatography–mass spectrometry.

[3] = system: in vitro model of BBB (primary rat brain micro vascular endothelial cells and rat brain pericytes); assay: In vitro BBB penetration assay (BBB Kit RBT-24H); settings: in vitro BBB model, apical to basolateral, 30 min, n = 3
Description: as §2

[4] = system: spinal cord (lumbar segments); assay: Histology of spinal cord of EAE mice; assay type: in vivo, female C57BL/6 mice
From the text: Mice were perfused in the heart with saline 0.9% followed by neutral-buffered formalin 10% (n = 3-4/group). Slides from different sections of the spinal cord were immersed and fixed overnight in 10% neutral-buffered formalin. Next, samples were transfered and immersed in a 10, 20 and 30% sucrose solution for consecutive nights. Sections were embedded in O.C.T compounds (Sakura Finetek, Japan) for the subsequent immunostaining study. Four sections of the spinal cord from each group were examined. Since the clinical manifestations are typically initiated as limp tail and hind-limb paralysis in this model, we focused on lumbar spinal segments. Frozen specimens were then incubated overnight at room temperature and stained with Cd11b for macrophage infiltration (Abcam), myelin basic protein (MBP) for demyelination, neurofilament non-phosphorylated (SMI-32) for axonal damage, collagen IV for extracellular matrix depositions (Abcam) and fibrinogen (Funakoshi, Japan). Incubation for 2 hs at room temperature in corresponding biotinylated goat secondary antibody was performed. For immunofluorescence, the sections were incubated overnight at room temperature using primary antibody Iba-1 for microglia activation (Wako Chemicals). After wash in PBS, the sections were then incubated in corresponding fluorescent goat secondary antibody (Wako Chemicals). For Cd11b, the number of positive macrophage was quantified as the total cells per selected area. The area of demyelination was calculated as the percentage of negative staining for MBP per selected area. As for axonal damage and collagen IV deposition, the positive staining per selected area was analyzed and calculated as the percentage per total area. For Quantification analysis was assessed by ImageJ TM software (version 1.440, National Institute of Health, Bethesda, MD, USA).

[5] = system: MBP69-88-induced EAE; assay: EAE rat model of MS, clinical paralysis score; assay type: in vivo; settings: EAE Lewis rats, from onset of signs, dpi 15; TM5484 5 mg/kg/d, fingolimod 0.5 mg/kg
Description: as §1
Experimental autoimmune encephalomyelitis (EAE) was induced in mice as described previously. […] Animals were scored for motor paralysis on a daily basis. Disease severity was assessed using a scale ranging from 0 to 5 (Hooke Laboratories, Inc.): 0, normal; 1, limp tail; 1.5, Limp tail and hind leg inhibition; 2, Limp tail and weakness of hind legs.; 2.5, Limp tail and dragging of hind legs; 3, Limp tail and complete paralysis of hind legs; 3.5, Limp tail and complete paralysis of hind legs and Hind legs are together on one side of body; 4, Limp tail, complete hind leg and partial front leg paralysis; 4.5, Complete hind and partial front leg paralysis, no movement around the cage; 5, Mouse is spontaneously rolling in the cage. […]

[6] = system: gene expression in spinal cord and spleen; assay: qRT-PCR gene expression in spinal cord and spleen of EAE mice; assay type: in vivo, female C57BL/6 mice
Description: Spinal cord was harvested from mice and snap frozen in liquid nitrogen (n = 6–7, each group). Total RNA was extracted from spinal cord and spleen using ISOGEN (Nippon Gene). qRT-PCR analysis was performed as described previously. Briefly, qRT-PCR was performed on a LightCycler rapid thermal cycler system using a LightCycler 480 SYBR Green I Master (Roche Applied Science) according to the manufacturer's instructions. Data were analyzed by using the comparative Ct method as means of relative quantification, normalized to an endogenous reference (b-actin, Actb). The sequences of the primers are described below: […]

[7] = system: MOG35-55-induced EAE, motor coordination; assay: Foot print analysis in EAE mice; assay type: in vivo, female C57BL/6 mice
Description: Briefly, to obtain footprints, the hind- and forefeet of the mice were coated with black non-toxic paint. The floor of the open field box was covered with white paper. Each mouse was placed in a corner of the open field and allowed to walk across the paper, leaving a track of footprints. If a mouse didn’t walk forward, the task was considered a failure. For each step parameter, three values were measured from each run, excluding footprints made at the beginning and end of the run where the animal was initiating and finishing movement respectively. The mean value of each set of three values was used for analysis.

[8] = In vitro BBB penetration assay (BBB Kit RBT-24H); settings: rat
Description: as §2

SMILES: C[C@H]1C[C@@H]2[C@H]([C@@H](O)C[C@@]3(C)[C@H]2CC[C@]3(O)C(=O)CO)[C@@]2(C)C=CC(=O)C=C12 [6α-methylprednisolone]
motor paralysis score [1]: ameliorated the motor paralysis
motor paralysis score ([1]; listed as 6-α methylprednisone): attenuated the paralysis score to the level observed with TM5484

Papp at 30 min [2]: 31.3 ×10⁻⁶ cm/s
SMILES: CC(C)NCC(O)COc1cccc2ccccc12 (stereo not shown) [Propanolol]

apparent permeability coefficient (Papp) [3]: 32.1 x 10^–6 cm/s
SMILES: O=C(COCC(=O)Nc1ccc(Cl)cc1C(=O)O)Nc1cccc(-c2ccoc2)c1 [TM5441]

Papp at 30 min [8]: 56 ×10⁻⁶ cm/s
SMILES: CCCCCCCCc1ccc(CCC(N)(CO)CO)cc1 [fingolimod]
fibrin (fibrinogen) deposition [4]: no changes were observed
collagen IV deposition ([4]; dpi 28): able to ameliorate collagen IV deposition
demyelination (anti-MBP staining) ([4]; dpi 28): reduced
macrophage accumulation and microglia activation (Cd11b and Iba-1 staining) ([4]; dpi 28, TM5484 5 mg/kg/d, fingolimod 0.5 mg/kg/d): significantly reduced; also recorded: ameliorated
paralysis score at the peak of the paralysis [5]: reduced the paralysis score to a level similar to TM5484
BDNF expression ([6]; spinal cord): did not restore BDNF expression
ChAT expression ([6]; spinal cord): up-regulated ChAT expression
PAI-1 mRNA expression ([6]; spinal cord): no effects
gene expression of inflammatory markers (TNF-α, IL-6, Ccl2, Cd68) ([6]; spinal cord and spleen, dpi 28, treatment from onset of paralysis): able to modulate these inflammatory effects
BDNF expression ([6]; spinal cord, listed as Fingolimod): no effects
expression of IL-10 ([6]; spleen): upregulated
stride length ([7]; dpi 28, TM5484 5 mg/kg/d, fingolimod 0.5 mg/kg): 5.48 cm
stride length (in words) ([7]; oral administration): significantly preserved the stride length
motor paralysis score [1]: ameliorated the motor paralysis; also recorded: attenuated the paralysis score to the level observed with TM5484

Reference: publication PMC4411110 (PLoS ONE, 2015)
